The target in assay [1] is T1, Aurora B (Homo sapiens, UniProt Q96GD4).
T1 construct: Active Aurora B enzyme (recombinant residues 1-344)
In words: Aurora B enzyme inhibition (time-resolved fluorescence, histone H3 peptide). Type of assay: biochemical. As to conditions: 1 mM ATP. In short, it runs like this: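 IC50s came from an exponential fit of inhibition against inhibitor concentration, with phosphorylation read as the 665/615 nm time-resolved fluorescence ratio after EDTA stop using Eu-anti-phospho-H3 and SA-APC. The 1 h reaction used Aurora B 1-344 plus GST-INCENP, biotin-histone H3 1-21 peptide and 1 mM ATP in pH 7.4 HEPES buffer.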

Assay [2] concerns the target T2, Aurora A (Homo sapiens, UniProt O14965).
T2 sequence (O14965 1-403): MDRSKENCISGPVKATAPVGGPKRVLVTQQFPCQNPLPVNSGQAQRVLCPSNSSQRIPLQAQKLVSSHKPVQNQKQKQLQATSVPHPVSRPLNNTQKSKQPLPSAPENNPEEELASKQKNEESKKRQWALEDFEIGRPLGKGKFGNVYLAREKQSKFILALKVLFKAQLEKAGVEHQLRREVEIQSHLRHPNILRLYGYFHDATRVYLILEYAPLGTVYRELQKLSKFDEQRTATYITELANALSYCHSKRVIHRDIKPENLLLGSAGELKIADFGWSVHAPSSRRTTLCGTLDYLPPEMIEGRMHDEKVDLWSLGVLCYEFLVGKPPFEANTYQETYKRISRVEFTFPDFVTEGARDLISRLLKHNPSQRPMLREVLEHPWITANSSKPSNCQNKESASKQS
Description: Aurora A enzyme inhibition (time-resolved fluorescence, STK substrate-2). Type of assay: biochemical. As to conditions: 1 mM ATP. In outline:
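Phosphorylation of biotinylated STK substrate-2 at 1 mM ATP, 1 h, Hepes buffer pH 7.4 (MgCl2, sodium orthovanadate, Triton X-100). After EDTA quench, 665/615 nm time-resolved fluorescence ratio read via europium anti-phospho antibody and SA-XL665; IC50 from exponential fit versus inhibitor concentration.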

In assay [3] the target is T3, KDR (Homo sapiens, UniProt P35968). In words: KDR HTRF in vitro kinase assay. Type of assay: biochemical. Set-up: purified enzyme (His6-KDR 789-1354, MW 63 kD); His6 (N). As to conditions: 1 mM ATP; read-out: KDR enzyme inhibition data (Ki). In short, it runs like this:
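His6-KDR 789-1354 (7 ng/well) with 0.5 μM biotinylated peptide substrate and 1 mM ATP in HEPES pH 7.1, MgCl2/MnCl2, 60 min at room temperature. EDTA-quenched, detected by streptavidin-XL-665 plus Eu-kryptate anti-phosphotyrosine HTRF after 3 h; IC50 from 620/665 nm ratio.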
On the technique in general: In TR-FRET formats the signal depends on donor and acceptor labels being close together.
Target sequence in this assay (P35968 789-1354): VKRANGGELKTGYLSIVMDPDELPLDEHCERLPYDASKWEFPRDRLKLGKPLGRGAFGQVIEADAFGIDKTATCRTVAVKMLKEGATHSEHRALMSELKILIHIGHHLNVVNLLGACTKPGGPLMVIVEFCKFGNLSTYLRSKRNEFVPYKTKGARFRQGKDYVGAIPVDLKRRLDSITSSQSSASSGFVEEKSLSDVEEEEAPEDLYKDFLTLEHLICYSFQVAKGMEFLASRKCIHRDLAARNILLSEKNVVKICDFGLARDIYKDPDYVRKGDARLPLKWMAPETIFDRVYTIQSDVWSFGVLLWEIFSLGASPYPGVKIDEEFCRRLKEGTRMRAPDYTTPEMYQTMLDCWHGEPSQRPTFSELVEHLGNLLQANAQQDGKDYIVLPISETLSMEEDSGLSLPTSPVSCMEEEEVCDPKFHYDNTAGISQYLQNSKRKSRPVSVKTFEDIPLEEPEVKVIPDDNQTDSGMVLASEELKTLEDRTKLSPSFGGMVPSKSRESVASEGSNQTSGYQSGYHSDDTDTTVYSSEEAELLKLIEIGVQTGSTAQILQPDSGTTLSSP

Assay [4] concerns the target T3, KDR. In words: KDR cellular assay (KDR receptor phosphorylation ELISA). Type of assay: cell-based. Set-up: expressed in transfected cells; host or cells: 3T3 (embryonic mouse) cells. To be noted: KDR transfected 3T3 (embryonic mouse) cells, VEGF stimulated; read-out: IC50 inhibition of KDR phosphorylation. The protocol:
The ability of compounds to inhibit KDR receptor phosphorylation in cells was measured by ELISA following the protocol outlined below.
KDR transfected 3T3 (embryonic mouse) cells added to 96-well tissue culture plates at 20,000 cells/well.
Plates were covered and placed in a 37° C. humidified incubator with 5% CO2 overnight, to allow cells to adhere.
Coating solution was prepared: 500 l/vial PBS was added to 2 vials of anti-KDR antibody, then 1 ml solubilized anti-KDR antibody into 29.0 ml bicarbonate buffer. Coating solution was added to all wells at 150 µl/well (final amount anti-KDR=1 µg/well) and placed at 4° C. overnight.
Blocking solution (2.1 g dry milk+42 ml PBS=5% milk in PBS) was placed on a stir plate for 30 min.
Assay plates were washed twice with PBST, and 200 µl/well blocking solution was added to all wells. Assay plates were covered with plate sealers and placed in a 37° C. microplate chamber until just before cell lysate transfer.
Compound stocks were thawed or prepared in DMSO as 5 mM stocks.
Dilution medium (DM, 1% DMSO in DMEM) and compounds were diluted by half-log increments for concentration response analysis.
Conditioned media was dumped from the tissue culture plates, and plates were blotted dry.
Standard solution in DM, compound dilutions in DM, or DM (for high control, negative control, and reference wells) were added to the tissue culture plates, 25 µl/well. Each pair of tissue culture plates was prepared with the same compounds, solutions, and layout; and will be combined later; Tissue culture plates were covered and placed in the 37° C. microplate chamber for 20 min.
VEGF solution was prepared: 110 l VEGF stock+10.89 ml DM=100 ng/ml VEGF
VEGF solution or DM (for reference wells) was added to the tissue culture plates, 25 μl/well.
Tissue culture plates were covered and placed in the 37° C. microplate chamber for 10 min.
RIPA buffer was prepared (240 l NaVO3 stock+240 l PIC stock+24 l NaF stock+23.496 ml RIPA base) and added to the tissue culture plates, 50 µl/well.
Tissue culture plates were covered and placed on a Labline plate shaker for 10 min (speed about 5).
Assay plates were washed twice with PBST.
Cell lysates from matching wells of each pair of tissue culture plates were combined to =200 µl/well, and were pipetted up and down to mix. Cell lysates were transferred to the assay plates using the same layouts, 170 µl/well.
Assay plates were covered with plate sealers and placed on a Labline plate shaker for 2 hr (speed about 5).
Assay plates were washed 5 times with PBST.
Biotin antibody solution was prepared (16 l biotin antibody stock+32 ml PBST=2000× dilution) and added to the assay plates, 150 µl/well.
Assay plates were covered with plate sealers and placed on a Labline plate shaker for 90 min
Streptavidin-HRP solution was prepared (16 l streptavidin-HRP stock+32 ml PBST=2000× dilution) and added to the assay plates, 150 µl/well.
Assay plates were covered with plate sealers and placed on a Labline plate shaker for 60 min
Substrate was added to the assay plates, 100 µl/well.
As assay plates developed, the plates were each monitored on a Molecular Devices Spectramax set to 650 nm, until the signal in the high control wells was around 0.6 OD and the signal in the negative control wells was around 0.1-0.15 OD.
Stop solution was added to the assay plates, 100 µl/well.
The plates were read on a Molecular Devices Spectramax set to 450 nm.
Data was calculated by Assay Explorer, using same-plate high control wells as 0% and reference standard wells as 100% inhibition of KDR phosphorylation. IC50 values were calculated by non-linear regression analysis of the concentration response data.
Target sequence in this assay (P35968 20-1356): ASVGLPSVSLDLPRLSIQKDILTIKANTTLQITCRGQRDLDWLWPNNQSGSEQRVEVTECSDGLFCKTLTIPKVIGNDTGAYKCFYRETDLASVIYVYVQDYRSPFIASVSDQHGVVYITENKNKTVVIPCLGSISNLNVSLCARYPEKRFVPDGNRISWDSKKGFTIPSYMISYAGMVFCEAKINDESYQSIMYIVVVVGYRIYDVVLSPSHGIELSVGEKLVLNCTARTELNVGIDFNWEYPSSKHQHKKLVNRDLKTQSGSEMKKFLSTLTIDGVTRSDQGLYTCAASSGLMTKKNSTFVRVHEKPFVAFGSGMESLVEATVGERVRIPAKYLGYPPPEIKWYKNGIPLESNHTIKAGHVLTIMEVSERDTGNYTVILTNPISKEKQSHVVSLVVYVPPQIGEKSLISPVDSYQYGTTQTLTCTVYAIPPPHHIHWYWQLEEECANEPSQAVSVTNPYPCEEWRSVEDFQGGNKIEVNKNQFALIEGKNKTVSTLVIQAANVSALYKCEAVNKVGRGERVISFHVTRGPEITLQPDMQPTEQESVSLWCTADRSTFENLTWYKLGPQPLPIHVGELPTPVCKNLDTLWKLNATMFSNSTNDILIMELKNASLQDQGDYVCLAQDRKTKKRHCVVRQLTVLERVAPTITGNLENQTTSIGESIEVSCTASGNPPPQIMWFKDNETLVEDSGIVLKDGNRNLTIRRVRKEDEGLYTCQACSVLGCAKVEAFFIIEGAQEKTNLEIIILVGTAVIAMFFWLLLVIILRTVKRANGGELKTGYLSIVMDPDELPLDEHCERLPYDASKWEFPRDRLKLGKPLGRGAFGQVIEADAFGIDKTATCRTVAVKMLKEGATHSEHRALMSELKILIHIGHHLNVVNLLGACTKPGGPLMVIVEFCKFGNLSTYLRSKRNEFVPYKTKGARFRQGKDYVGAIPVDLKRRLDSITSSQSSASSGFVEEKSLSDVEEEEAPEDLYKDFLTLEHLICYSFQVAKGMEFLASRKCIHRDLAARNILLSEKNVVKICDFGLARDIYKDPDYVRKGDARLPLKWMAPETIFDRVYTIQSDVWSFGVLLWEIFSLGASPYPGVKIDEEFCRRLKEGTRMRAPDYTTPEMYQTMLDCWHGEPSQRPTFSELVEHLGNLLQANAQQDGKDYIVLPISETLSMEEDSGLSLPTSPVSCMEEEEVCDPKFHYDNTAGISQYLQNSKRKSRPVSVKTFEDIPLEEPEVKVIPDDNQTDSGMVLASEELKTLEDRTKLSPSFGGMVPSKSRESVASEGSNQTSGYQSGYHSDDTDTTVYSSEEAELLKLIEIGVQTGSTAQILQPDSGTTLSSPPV
On the technique in general: An ELISA detects its analyte on a solid surface through an enzyme-linked reagent.

Where only a bound is given, the exact number is not on record here.

For orientation: Ki means a measure of affinity in units of concentration, obtained from inhibition or displacement. In general, IC50 refers to the concentration needed to halve the response being measured.

T1 sequence (Q96GD4 whole entry, the tested form may be a part): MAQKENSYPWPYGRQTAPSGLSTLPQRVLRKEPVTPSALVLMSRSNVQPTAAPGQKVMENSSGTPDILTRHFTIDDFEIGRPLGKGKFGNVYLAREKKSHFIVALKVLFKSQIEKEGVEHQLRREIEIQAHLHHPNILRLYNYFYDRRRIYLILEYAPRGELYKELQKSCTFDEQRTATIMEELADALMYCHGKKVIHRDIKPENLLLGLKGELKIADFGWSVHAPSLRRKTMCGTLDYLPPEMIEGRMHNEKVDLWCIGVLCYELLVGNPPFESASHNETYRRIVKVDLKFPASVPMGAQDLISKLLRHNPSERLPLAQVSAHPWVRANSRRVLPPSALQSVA
T1 sequence (Q9NQS7 826-918 partner limits assumed): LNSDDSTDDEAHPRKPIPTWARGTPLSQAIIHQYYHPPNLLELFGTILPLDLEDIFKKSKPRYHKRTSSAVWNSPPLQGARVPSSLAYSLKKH

Take `NC(=O)[C@@H]1[C@H](Nc2nc(Nc3cnn(CC(F)(F)F)c3)ncc2C(F)(F)F)[C@H]2C=C[C@@H]1C2` (racemic) [Example 32, (1S,2S,3R,4R)-3-{[2-{[1-(2,2,2-trifluoroethyl)-1H-pyrazol-4-yl]amino}-5-(trifluoromethyl)pyrimidin-4-yl]amino}bicyclo[2.2.1]hept-5-ene-2-carboxamide and (1R,2R,3S,4S)-3-{[2-{[1-(2,2,2-trifluoroethyl)-1H-pyrazol-4-yl]amino}-5-(trifluoromethyl)pyrimidin-4-yl]amino}bicyclo[2.2.1]hept-5-ene-2-carboxamide]: the Ki in assay [1], in assay [2] and in assay [3] was less than 0.1 µM throughout. For the same compound, the IC50 in assay [4] was less than 0.1 µM.
Take `Cn1cc(Nc2ncc(Cl)c(Nc3ccc4[nH]ncc4c3)n2)cn1` [Example 175, 5-chloro-N^4-(1H-indazol-5-yl)-N^2-(1-methyl-1H-pyrazol-4-yl)pyrimidine-2,4-diamine]: the Ki in assay [1], in assay [2] and in assay [3] was less than 0.1 µM in each case. For the same compound, the IC50 in assay [4] is 0.1 to 1 µM.
Regarding `CC1(C)[C@H]2C[C@H](C(N)=O)[C@H](Nc3nc(Nc4cnn(-c5ccccc5)c4)ncc3Cl)[C@@H]1C2` [Example 189, (1R,2R,3S,5R)-2-({5-chloro-2-[(1-phenyl-1H-pyrazol-4-yl)amino]pyrimidin-4-yl}amino)-6,6-dimethylbicyclo[3.1.1]heptane-3-carboxamide], the Ki in assay [1], in assay [2] and in assay [3] was less than 0.1 µM in each case. In addition, the IC50 in assay [4] was in the range of 0.1 to 1 µM.
As for `Cn1cc(Nc2ncc(C(F)(F)F)c(Nc3cn(C)nc3C(N)=O)n2)cn1` [Example 153, 1-methyl-4-({2-[(1-methyl-1H-pyrazol-4-yl)amino]-5-(trifluoromethyl)pyrimidin-4-yl}amino)-1H-pyrazole-3-carboxamide], the inhibition constant Ki in assay [1] was less than 0.1 µM; in assay [2], less than 0.1 µM; in assay [3], 0.1 to 1 µM. Also, in assay [4], the IC50 is 0.1 to 1 µM.
On to `OCCn1cc(Nc2ncc(Cl)c(Nc3ccc4[nH]ncc4c3)n2)cn1` [Example 180, 2-(4-{[5-chloro-4-(1H-indazol-5-ylamino)pyrimidin-2-yl]amino}-1H-pyrazol-1-yl)ethanol], for which the inhibitory constant (Ki) in assay [1], in assay [2] and in assay [3] was less than 0.1 µM each time. Moreover, the IC50 in assay [4] fell in the range of 0.1 to 1 µM.
On to `Cc1nn(C)c(C)c1Nc1ncc(Br)c(N[C@H]2[C@@H](C(N)=O)[C@@H]3C=C[C@H]2C3)n1` [Example 128, (1S,2S,3R,4R)-3-({5-bromo-2-[(1,3,5-trimethyl-1H-pyrazol-4-yl)amino]pyrimidin-4-yl}amino)bicyclo[2.2.1]hept-5-ene-2-carboxamide], for which the Ki in assay [1], in assay [2] and in assay [3] was 0.1 to 1 µM in each case. In addition, the IC50 in assay [4] lay in the range of 0.1 to 1 µM.
`Cn1cc(Nc2ncc(C(F)(F)F)c(Nc3sccc3C(N)=O)n2)cn1` [Example 152, 2-({2-[(1-methyl-1H-pyrazol-4-yl)amino]-5-(trifluoromethyl)pyrimidin-4-yl}amino)thiophene-3-carboxamide]: the inhibition constant (Ki) was less than 0.1 µM in assay [1], less than 0.1 µM in assay [2] and 0.1 to 1 µM in assay [3]. Besides, in assay [4], the IC50 fell in the range of 0.1 to 1 µM.
Take `Cn1cc(Nc2ncc(Br)c(N[C@H]3[C@@H](C(N)=O)C[C@H]4C[C@@H]3C4(C)C)n2)cn1` [Example 182, (1R,2R,3S,5R)-2-({5-bromo-2-[(1-methyl-1H-pyrazol-4-yl)amino]pyrimidin-4-yl}amino)-6,6-dimethylbicyclo[3.1.1]heptane-3-carboxamide]: the Ki in assay [1], in assay [2] and in assay [3] was less than 0.1 µM in each case. Also, in assay [4], the IC50 was 0.1 to 1 µM.
For the compound “5-chloro-N^2-(1H-indazol-5-yl)-N^2-{1-[(3R)-pyrrolidin-3-yl]-1H-pyrazol-4-yl}pyrimidine-2,4-diamine [Example 181]”, the Ki in assay [1], in assay [2] and in assay [3] was less than 0.1 µM in each case. Also, the IC50 in assay [4] fell in the range of 0.1 to 1 µM.

These data come from patent US8426408B2, “Pyrimidine inhibitors of kinases” (AbbVie Inc., priority 2009, dated 2013).
